Data taken from ChEMBL document CHEMBL3046635, “Synthesis and Herbicidal Activity of New Pyrazole-4-carboxamide Derivatives” (J Pestic Sci, 2004).
Active and inactive are the calls of the source.

Experiments:
[1] = tested on: Echinochloa oryzicola; experiment: Post-emergence herbicidal activity against Echinochloa oryzicola assessed as bleaching of stem/leaf parts; assay type: functional, organism-based; also: test concentration or dose not given here
[2] = tested on: Pontederia vaginalis; experiment: Pre-emergence herbicidal activity against Monochoria vaginalis assessed as bleaching of stem/leaf parts; assay type: functional, organism-based
[3] = tested on: Eleocharis acicularis; experiment: Post-emergence herbicidal activity against Eleocharis acicularis assessed as bleaching of stem/leaf parts; assay type: functional, organism-based; also: test concentration or dose not given here
[4] = tested on: Pontederia vaginalis; experiment: Pre-emergence herbicidal activity against Monochoria vaginalis at 2000 g a.i/ha measured after 14 days; assay type: functional, organism-based
[5] = tested on: Eleocharis acicularis; experiment: Pre-emergence herbicidal activity against Eleocharis acicularis assessed as bleaching of stem/leaf parts; assay type: functional, organism-based
[6] = tested on: Pontederia vaginalis; experiment: Post-emergence herbicidal activity against Monochoria vaginalis assessed as bleaching of stem/leaf parts; assay type: functional, organism-based; also: test concentration or dose not given here
[7] = tested on: Rotala indica; experiment: Post-emergence herbicidal activity against Rotala indica assessed as bleaching of stem/leaf parts; assay type: functional, organism-based; also: test concentration or dose not given here
[8] = tested on: Elatine triandra; experiment: Pre-emergence herbicidal activity against Elatine triandra assessed as bleaching of stem/leaf parts; assay type: functional, organism-based
[9] = tested on: Lindernia procumbens; experiment: Pre-emergence herbicidal activity against Lindernia procumbens at 2000 g a.i/ha measured after 14 days; assay type: functional, organism-based
[10] = tested on: Cyperus difformis; experiment: Pre-emergence herbicidal activity against Cyperus difformis at 2000 g a.i/ha measured after 14 days; assay type: functional, organism-based
[11] = tested on: Echinochloa oryzicola; experiment: Pre-emergence herbicidal activity against Echinochloa oryzicola assessed as bleaching of stem/leaf parts; assay type: functional, organism-based
[12] = tested on: Elatine triandra; experiment: Post-emergence herbicidal activity against Elatine triandra assessed as bleaching of stem/leaf parts; assay type: functional, organism-based; also: test concentration or dose not given here
[13] = tested on: Rotala indica; experiment: Pre-emergence herbicidal activity against Rotala indica assessed as bleaching of stem/leaf parts; assay type: functional, organism-based
[14] = tested on: Eleocharis acicularis; experiment: Pre-emergence herbicidal activity against Eleocharis acicularis at 2000 g a.i/ha measured after 14 days; assay type: functional, organism-based
[15] = tested on: Oryza sativa; experiment: Phytotoxicity against Oryza sativa cv. Koshihikari (rice) at 2000 g a.i/ha measured after 14 days; assay type: organism-based; settings: in vivo, 336 h
[16] = tested on: Lindernia procumbens; experiment: Post-emergence herbicidal activity against Lindernia procumbens assessed as bleaching of stem/leaf parts; assay type: functional, organism-based; also: test concentration or dose not given here
[17] = tested on: Cyperus difformis; experiment: Pre-emergence herbicidal activity against Cyperus difformis assessed as bleaching of stem/leaf parts; assay type: functional, organism-based
[18] = tested on: Rotala indica; experiment: Pre-emergence herbicidal activity against Rotala indica at 2000 g a.i/ha measured after 14 days; assay type: functional, organism-based
[19] = tested on: Ammannia multiflora; experiment: Pre-emergence herbicidal activity against Ammannia multiflora at 2000 g a.i/ha measured after 14 days; assay type: functional, organism-based
[20] = tested on: Schoenoplectiella juncoides; experiment: Pre-emergence herbicidal activity against Schoenoplectiella juncoides at 2000 g a.i/ha measured after 14 days; assay type: functional, organism-based
[21] = tested on: Echinochloa oryzicola; experiment: Pre-emergence herbicidal activity against Echinochloa oryzicola at 2000 g a.i/ha measured after 14 days; assay type: functional, organism-based
[22] = tested on: Cyperus difformis; experiment: Post-emergence herbicidal activity against Cyperus difformis assessed as bleaching of stem/leaf parts; assay type: functional, organism-based; also: test concentration or dose not given here
[23] = tested on: Lindernia procumbens; experiment: Pre-emergence herbicidal activity against Lindernia procumbens assessed as bleaching of stem/leaf parts; assay type: functional, organism-based
[24] = tested on: Ammannia multiflora; experiment: Post-emergence herbicidal activity against Ammannia multiflora assessed as bleaching of stem/leaf parts; assay type: functional, organism-based; also: test concentration or dose not given here
[25] = tested on: Schoenoplectiella juncoides; experiment: Post-emergence herbicidal activity against Schoenoplectiella juncoides assessed as bleaching of stem/leaf parts; assay type: functional, organism-based; also: test concentration or dose not given here
[26] = tested on: Schoenoplectiella juncoides; experiment: Pre-emergence herbicidal activity against Schoenoplectiella juncoides assessed as bleaching of stem/leaf parts; assay type: functional, organism-based
[27] = tested on: Ammannia multiflora; experiment: Pre-emergence herbicidal activity against Ammannia multiflora assessed as bleaching of stem/leaf parts; assay type: functional, organism-based
[28] = tested on: Elatine triandra; experiment: Pre-emergence herbicidal activity against Elatine triandra at 2000 g a.i/ha measured after 14 days; assay type: functional, organism-based

Row | SMILES | Activity [1] | Activity [2] | Activity [3] | Activity [4] | Activity [5] | Activity [6] | Activity [7] | Activity [8] | Activity [9] | Activity [10] | Activity [11] | Activity [12] | Activity [13] | Activity [14] | Activity [15] | Activity [16] | Activity [17] | Activity [18] | Activity [19] | Activity [20] | further results
1 | CCCN(CC)C(=O)c1cn(C)nc1OC(C)c1cccc(Br)c1 (stereo not given) | Active | Active | Active | inactive | Active | Active | Active | Active | inactive | inactive | Active | Active | Active | inactive | Non-toxic | Active | Active | inactive | inactive | inactive | Activity [21]: inactive; Activity [22]: Active; Activity [23]: Active; Activity [24]: Active; Activity [25]: Active; Activity [26]: Active; Activity [27]: Active; Activity [28]: inactive
2 | CCCN(CC)C(=O)c1cn(C)nc1OCc1ccc(C)cc1 | Active | Active | Active | inactive | Active | Active | Active | Active | inactive | inactive | Active | Active | Active | inactive | Non-toxic | Active | Active | inactive | inactive | inactive | Activity [21]: inactive; Activity [22]: Active; Activity [23]: Active; Activity [24]: Active; Activity [25]: Active; Activity [26]: Active; Activity [27]: Active; Activity [28]: inactive
3 | CCCN(CC)C(=O)c1cn(C)nc1OCc1ccccc1 | Active | Active | Active | Active | Active | Active | Active | Active | Active | Active | Active | Active | Active | Active | Non-toxic | Active | Active | Active | Active | inactive | Activity [21]: Active; Activity [22]: Active; Activity [23]: Active; Activity [24]: Active; Activity [25]: Active; Activity [26]: Active; Activity [27]: Active; Activity [28]: Active
4 | CCCN(CC)C(=O)c1cn(C)nc1OCc1cccc(C#N)c1 | Active | Active | Active | inactive | Active | Active | Active | Active | inactive | inactive | Active | Active | Active | inactive | Non-toxic | Active | Active | inactive | inactive | inactive | Activity [21]: inactive; Activity [22]: Active; Activity [23]: Active; Activity [24]: Active; Activity [25]: Active; Activity [26]: Active; Activity [27]: Active; Activity [28]: inactive
5 | CCCN(CC)C(=O)c1cn(C)nc1OC | Active | Active | Active | inactive | Active | Active | Active | Active | inactive | inactive | Active | Active | Active | inactive | Non-toxic | Active | Active | inactive | inactive | inactive | Activity [21]: inactive; Activity [22]: Active; Activity [23]: Active; Activity [24]: Active; Activity [25]: Active; Activity [26]: Active; Activity [27]: Active; Activity [28]: inactive
